Legend:
Test in all cases: biochemical
Parameters in all cases: Ubiquigent DUB profiler selectivity panel, remaining enzyme activity as % of control
Conditions in all cases: read-out: % of control remaining
AMSH-LP = target: T1, AMSH-LP (Homo sapiens, UniProt Q96FJ0)
T1 construct: gene STAMBPL1
T1 sequence (Q96FJ0 1-436): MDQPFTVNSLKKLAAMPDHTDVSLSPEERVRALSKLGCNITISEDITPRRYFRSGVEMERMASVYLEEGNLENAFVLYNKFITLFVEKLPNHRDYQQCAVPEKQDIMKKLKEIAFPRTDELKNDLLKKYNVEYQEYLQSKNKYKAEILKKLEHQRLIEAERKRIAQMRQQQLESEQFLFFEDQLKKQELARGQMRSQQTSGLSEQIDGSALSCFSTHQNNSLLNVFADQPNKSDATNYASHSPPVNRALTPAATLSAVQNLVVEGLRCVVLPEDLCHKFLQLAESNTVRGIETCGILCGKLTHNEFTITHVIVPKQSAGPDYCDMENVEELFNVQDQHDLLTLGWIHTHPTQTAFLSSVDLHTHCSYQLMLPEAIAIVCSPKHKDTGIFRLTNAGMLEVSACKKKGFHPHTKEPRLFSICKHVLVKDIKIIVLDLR
Description: (§1) Previous work has reported IC50 values for a series of benzosulphonamide inhibitors, of which all those <1 μM were screened for selectivity, in comparison to three other USP family members ([20], [21]). We have selected one of these compounds (CMPD-39, Fig 1A) for a more rigorous test of selectivity provided by the Ubiquigent DUB profiler screening platform comprising >40 DUBs. […] To test engagement of the inhibitor with USP30 applied to intact cells, we assayed competition with Ub-PA (Ub-propargylamide). Ub-PA covalently binds to the USP30 active site leading to a characteristic upshift on a SDS–PAGE gel ([22]). If a drug blocks access to the catalytic site, then the probe modification is blocked and the apparent molecular weight of USP30 shifts down accordingly. […] A robust proxy read-out for target engagement is the enhancement of TOMM20 ubiquitylation after mitochondrial depolarization ([6], [16]). This second assay indicates a maximal effect with 200 nM CMPD-39 applied to RPE1-YFP-PRKN cells (Fig 1D).  Figure 1. CMPD-39 is a selective USP30 inhibitor. (A) Chemical structure of CMPD-39. (B) DUB specificity screen (DUB profiler, Ubiquigent) with 1-100 μM CMPD-39. […] Samples were incubated with CMPD-39 for 2 h at the indicated concentrations, then incubated with HA-Ub-PA probe for 10 min at 37°C and immunoblotted as shown. Red arrow indicates unbound USP30; blue arrow represents probe bound USP30. (D) Inhibition of USP30 enhances the ubiquitylation of TOMM20 in YFP-PRKN over-expressing hTERT-RPE1 cells in a concentration dependent manner in response to mitophagy induction. Cells were treated for 1 h with DMSO or antimycin A and oligomycin A (AO; 1 μM each) in the absence or presence of CMPD-39 at the indicated concentrations, lysed, and analyzed by Western blotting. Black arrow indicates unmodified TOMM20, ubiquitylated species are indicated by red (mono-ubiquitylated) or blue arrow heads. […] Source data are available for this figure.

USP4 = target: T2, USP4 (Homo sapiens, UniProt Q13107)
T2 sequence (Q13107 1-963): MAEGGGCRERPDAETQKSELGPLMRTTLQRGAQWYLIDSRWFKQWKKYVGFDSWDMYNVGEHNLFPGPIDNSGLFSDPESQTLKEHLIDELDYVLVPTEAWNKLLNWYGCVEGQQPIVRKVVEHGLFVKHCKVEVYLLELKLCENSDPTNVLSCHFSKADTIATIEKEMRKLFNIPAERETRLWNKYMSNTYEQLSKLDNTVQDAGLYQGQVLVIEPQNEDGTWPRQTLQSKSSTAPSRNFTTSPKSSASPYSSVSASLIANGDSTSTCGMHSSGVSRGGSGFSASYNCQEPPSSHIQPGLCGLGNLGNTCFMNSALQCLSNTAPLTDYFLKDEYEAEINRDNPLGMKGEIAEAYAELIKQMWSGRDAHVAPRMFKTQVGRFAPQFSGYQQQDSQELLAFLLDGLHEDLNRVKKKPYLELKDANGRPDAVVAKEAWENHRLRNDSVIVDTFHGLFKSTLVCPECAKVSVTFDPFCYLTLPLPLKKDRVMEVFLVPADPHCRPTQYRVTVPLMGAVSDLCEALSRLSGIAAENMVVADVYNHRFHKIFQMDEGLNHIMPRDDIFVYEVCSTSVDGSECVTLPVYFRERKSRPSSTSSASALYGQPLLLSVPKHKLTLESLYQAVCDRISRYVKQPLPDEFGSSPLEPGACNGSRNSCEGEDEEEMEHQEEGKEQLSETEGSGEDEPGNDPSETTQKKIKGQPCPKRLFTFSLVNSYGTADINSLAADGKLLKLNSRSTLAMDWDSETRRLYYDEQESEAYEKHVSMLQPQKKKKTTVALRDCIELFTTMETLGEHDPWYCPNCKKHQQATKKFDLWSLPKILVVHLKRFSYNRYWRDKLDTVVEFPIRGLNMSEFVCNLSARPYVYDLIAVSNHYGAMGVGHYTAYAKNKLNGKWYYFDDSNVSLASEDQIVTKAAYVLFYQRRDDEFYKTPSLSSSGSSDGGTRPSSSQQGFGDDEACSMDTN
Description: as §1

USP2 = target: T3, USP2 (Homo sapiens, UniProt O75604)
T3 sequence (O75604 1-605): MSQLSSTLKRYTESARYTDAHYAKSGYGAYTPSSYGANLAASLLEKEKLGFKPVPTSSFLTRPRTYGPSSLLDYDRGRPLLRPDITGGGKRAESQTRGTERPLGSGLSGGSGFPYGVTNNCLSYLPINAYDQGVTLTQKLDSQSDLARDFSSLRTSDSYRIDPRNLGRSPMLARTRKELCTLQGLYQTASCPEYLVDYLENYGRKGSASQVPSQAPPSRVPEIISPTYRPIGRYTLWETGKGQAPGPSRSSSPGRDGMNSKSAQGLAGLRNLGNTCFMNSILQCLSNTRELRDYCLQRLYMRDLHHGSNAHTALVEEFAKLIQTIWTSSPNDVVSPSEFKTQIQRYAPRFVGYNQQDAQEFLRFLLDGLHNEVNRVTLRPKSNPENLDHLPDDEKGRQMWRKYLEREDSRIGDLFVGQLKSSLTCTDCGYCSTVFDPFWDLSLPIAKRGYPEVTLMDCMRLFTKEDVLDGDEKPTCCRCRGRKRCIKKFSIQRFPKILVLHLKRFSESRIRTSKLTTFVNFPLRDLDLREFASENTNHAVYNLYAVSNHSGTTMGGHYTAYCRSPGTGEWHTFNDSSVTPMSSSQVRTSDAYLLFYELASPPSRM
Description: as §1

CC(C)(C)NS(=O)(=O)c1ccc(NC(=O)[C@H](Cc2ccccc2)NC(=O)c2ccc(F)cc2)cc1 [compound 39, CMPD-39]
remaining activity at 1 µM (AMSH-LP): 109%
remaining activity at 10 µM (AMSH-LP): 102%
remaining activity at 100 µM (AMSH-LP): 112%
remaining activity at 1 µM (USP4): 107%
remaining activity at 10 µM (USP4): 103%
remaining activity at 100 µM (USP4): 98.9%
remaining activity at 1 µM (USP2): 107%
remaining activity at 10 µM (USP2): 97.7%
remaining activity at 100 µM (USP2): 101%

From paper PMC8645336, “Benchmarking a highly selective USP30 inhibitor for enhancement of mitophagy and pexophagy” (Life Science Alliance, 2021)
